Source: US20110020925A1, “NEW MODULATING MOLECULES FOR AN IMPROVED REGULATED EXPRESSION SYSTEM” (BAYER SCHERING PHARMA AKTIENGESELLSCHAFT, priority 2007, published 2011)
Positions count from the first letter of the chain named. Blank lines part the entries; values can stand above or below the molecule they belong to.

Key:
[1] = test system: IP-10; experiment: MFP dose/response and plasmid re-injection with BRES-1/mIFN plasmid pGT26 in vivo, IP-10 ELISA; parameters: species or system C57BI/6 mice; settings: MFP 0.0033 mg/kg i.p. days 7-10
Protocol: The inducible mIFN-γ expression plasmid pGT26 was injected and electroporated on day 0 into hind limb muscles of C57BI/6 mice. […] Bleeds were taken on day 88 and 200, respectively. Serum was assayed for the chemokine IP-10 by ELISA. The results are shown as the mean (n=5 animals per group).
In addition, a complete pharmacokinetic profile of the expression of the therapeutic molecule (TM) can be performed using an activator molecule (AM) to determine the AM dose/response, as well as the kinetics of induction of TM expression following AM administration. […] Blood was collected at days 11 post-injection, and serum samples were assayed for IP-10 (see “Experimental Design” below for details). […] By day 67 the level of IP-10 had decreased several-fold from the day 11 level, so the plasmid DNA was re-injected at day 77.
For safety studies in humans, a complete characterization of the rate at which the activator molecule (AM) and TM expression can be turned “off” following withdrawal of the AM can be performed. The frequency of AM dosing necessary to achieve steady state levels of the TM can be evaluated.
• DNA solutions: Each mouse received 250 ug of plasmid DNA in 150 ul PBS. • DNA delivery: Adult male C57BI/6 mice were injected bilaterally on day 0 with 250 ug plasmid DNA per mouse in 150 ul PBS. […]

[2] = target: T1, V729L/W755A RP (pBRES) (Homo sapiens, UniProt P06401, V729L/W755A); experiment: Induction of luciferase, mSEAP or hIFNb from pBRES with V729L/W755A RP in C2C12 cells; format: cell-based, mouse; settings: every orientation, three transgenes
T1 construct: expressed in transfected cells; host or cells: C2C12 mouse muscle cells
T1 sequence (P06401 640-914 V729L/W755A): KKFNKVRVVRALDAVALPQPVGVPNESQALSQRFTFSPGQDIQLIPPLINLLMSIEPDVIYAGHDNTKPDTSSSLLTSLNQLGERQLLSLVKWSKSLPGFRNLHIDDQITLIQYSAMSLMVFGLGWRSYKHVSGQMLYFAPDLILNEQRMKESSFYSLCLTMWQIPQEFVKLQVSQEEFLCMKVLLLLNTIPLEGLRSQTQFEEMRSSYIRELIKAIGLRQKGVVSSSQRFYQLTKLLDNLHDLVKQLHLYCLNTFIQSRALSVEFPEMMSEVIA

[3] = target: T2, original RP (pGT45) (Homo sapiens, UniProt P06401); experiment: In vivo mSEAP serum level after inducer, mice with pGT45 (original RP); settings: 0.33 mg/kg or 1 mg/kg i.p. days 7-10
T2 construct: expressed in transfected cells; host or cells: mouse hind limb muscle in vivo (plasmid injection plus electroporation)
T2 sequence (P06401 640-914): T1 sequence (P06401 640-914 V729L/W755A) with L90V, A116W
Protocol: Upon the conclusion of in vitro testing, the divergent orientation of mSEAP and RP in pGT45 and pGT1048 were tested side-by-side in a mouse study. Mice were injected with plasmid DNA in the hind limbs and electroporation was used to deliver the DNA into the muscle cells on day 0. […] Six hours after the last injection on day 10, samples of blood were collected from the tail veins of the mice. mSEAP levels in the serum were measured to determine the level of this reporter expression following induction with compounds. Additional blood samples were collected prior to injection of inducers on day 7, as well as on days 18 and 25 to monitor the drop off of mSEAP expression.

[4] = test system: murine acute EAE model; experiment: Mouse acute EAE model, clinical scoring; format: in vivo, SJL mice; settings: for clinical scores of EAE, positive controls: i.p. twice daily, Mesopram 9 mg/kg, Prednisolone 2.5 mg/kg
[5] = target: GAL-4 DBS; settings: read-out: Kd for binding; cited from earlier work
[6] = test system: Mx1 RNA; experiment: Mx1 RNA induction in L929 cells (TaqMan RT-PCR); format: cell-based, murine
Protocol: FIG. 5 illustrates Mx1 RNA induction in vitro (in L929 cells) by mIFN-ÿ. L929 cells were seeded at 5×10^5 cells in 6 well plates and stimulated with increasing amounts of purified recombinant mIFN-ÿ protein. Four hours after treatment the cells were harvested, RNA isolated, and Mx1 RNA quantitated by TaqMan analysis. Mx1 RNA expression is plotted as the fold increase relative to GAPDH RNA.
A quantitative PCR/RT-PCR assay was developed to quantitate the levels of Mx1 mRNA in murine PBMC's. Specifically, peripheral blood mononuclear cells (PBMCs) were isolated from mice treated with either mIFN-β protein or following gene-based delivery of the mIFN-β gene. Blood samples obtained from treated mice were centrifuged on a ficoll cushion for 25 minutes at 2,000 rpm. Purified PBMCs were pelleted and RNA for the Mx1 assay was purified using the “RNAeasy” mini extraction kit from Qiagen. The RNA was stored in H2O at −80° C. Mx1 RT-PCR was performed using TaqMan® chemistry and analysis was done on the Applied Biosystems (ABI) PRISM® 7700 Sequence Detection instrument. For reverse transcription of the RNA and amplification of cDNA, the “One-step TaqMan® RNA” kit from ABI was used. […] The samples were analyzed with an Mx1-specific probe/primer combination. Mx1 expression was normalized to GAPDH expression measured in parallel using a standard assay from ABI. […]

[7] = test system: Mx1 RNA; experiment: Mx1 RNA induction in PBMCs of mice (quantitative RT-PCR) after mIFN-β protein or gene delivery; format: in vivo, C57BI/6 mice
Protocol: C57BI/6 mice were administered 15, 150, or 500 ng of purified recombinant mIFN-ÿ protein (specific activity-2.0×108 units/mg) by either i.v. (via tail vein) or i.m. injection (n=3 mice per group). At the specified time points post-injection mice were bled, and RNA was isolated from PBMCs. Mx1 RNA was measured by quantitative RT-PCR. The fold increase in Mx1 RNA is expressed relative to GAPDH values measured in the same samples. The controls include naive mice (N), and mice injected with the vehicle buffer only followed by Mx1 analysis at 2 hours (V2h) or 4h (V4h) post-injection. Each column represents the mean value+/−standard deviation.
A quantitative PCR/RT-PCR assay was developed to quantitate the levels of Mx1 mRNA in murine PBMC's. Specifically, peripheral blood mononuclear cells (PBMCs) were isolated from mice treated with either mIFN-β protein or following gene-based delivery of the mIFN-β gene. Blood samples obtained from treated mice were centrifuged on a ficoll cushion for 25 minutes at 2,000 rpm. […] The samples were analyzed with an Mx1-specific probe/primer combination. Mx1 expression was normalized to GAPDH expression measured in parallel using a standard assay from ABI.
B. Bolus Injection of mIFN-β Protein Induces Transient Biomarker Response In Vivo: The biomarker response after bolus injection of purified recombinant mIFN-β was measured in these studies.

[8] = test system: IP-10; experiment: IP-10 plasma level in mice (ELISA) after mIFN-β protein or gene delivery; format: in vivo, C57BI/6 mice
Protocol: (§1) FIG. 7 illustrates induction levels of IP-10 (A) and JE (B) following i.v. or i.m. injection of murine IFN-ÿ protein. C57BI/6 mice were administered 15, 150, or 500 ng of purified recombinant mIFN-ÿ protein (specific activity=2.0×108 units/mg) by either i.v. (via tail vein) or i.m. injection (n=3 mice per group). The mice were bled at 2, 4, 6, 12, 24, and 48 hours post-injection, and the plasma levels of IP-10 and JE were measured by ELISA (R&D Systems).
FIG. 8 illustrates the induction of IP-10 following intramuscular injection of AAV-1-mIFN-ÿ DNA or mIFN-ÿ plasmid DNA with electroporation (EP) in mice. Normal mice (C57BI/6) were injected i.m. with either AAV-1-mIFN-ÿ (5×10^9 viral particles), or mIFN-ÿ plasmid DNA (150 ug) with electroporation. Mice were bled at the indicated time points and IP-10 levels in plasma were determined by ELISA. Each column represents the mean value+/−the standard deviation (n=5 mice per group).
C. Chemokines IP-10 and JE: During the analysis of plasma samples from mice treated with mIFN-β protein, two murine chemokines, IP-10 and JE the murine homologue of MCP-1 (monocyte chemoattractant protein, see e.g., Yoshimura, T (1989) FEBS Lett 244: 487-93), were also identified to have a similar response and activation to mIFN-β as Mx1 RNA (FIGS. 7 and 8). […]
The plasma samples were also analyzed for IP-10 and JE (FIGS. 7 and 8). […]

[9] = test system: JE; experiment: JE plasma level in mice (ELISA) after mIFN-β protein or gene delivery; format: in vivo, C57BI/6 mice; settings: each of three doses, i.v. or i.m.
Protocol: as §1
C. Chemokines IP-10 and JE: During the analysis of plasma samples from mice treated with mIFN-β protein, two murine chemokines, IP-10 and JE the murine homologue of MCP-1 (monocyte chemoattractant protein, see e.g., Yoshimura, T (1989) FEBS Lett 244: 487-93), were also identified to have a similar response and activation to mIFN-β as Mx1 RNA (FIGS. 7 and 8). A strong induction of IP-10 and JE was seen 2 hours after administration of mIFN-β protein either i.v. or i.m. IP-10 levels increased 3000-fold at the high dose delivered i.v. With each of the three mIFN-β doses tested, a rapid drop to background in the plasma levels of IP-10 and JE was observed by 24 hours.

[10] = Luciferase reporter gene assay for activity of purified mIFN-β protein; format: cell-based; settings: commercial mIFN-β reference standard
Protocol: Specifically, the gene encoding mIFN-β was cloned into a pCEP4 expression vector (Invitrogen). The expression plasmid encoding mIFN-β was transiently transfected into 293E cells (Edge Biosystems) using X-tremeGene Ro-1539 Transfection Reagent (Roche). Murine IFN-β protein was purified from the medium by ion-exchange chromatography and by hydrophobic-interaction chromatography. The product was sialyzed and concentrated against dilution buffer (50 mM sodium acetate, pH 5.5, 150 mM sodium chloride, and 5% polypropylene glycol) and sterile filtered. Aliquots of the purified protein were stored at −80° C. The activity of the purified protein was assessed using a luciferase reporter gene assay (Hardy et al. (2001) Blood 97:473-482), using a commercial mIFN-β reference standard from Access Biomedical (San Diego, Calif.). The specific activity of the purified protein was 2×10^8 units/mg.

activity of engineered RP when induced [2]: retained full activity
response (serum mSEAP) of mice to inducer [3]: responded well
Molecule: CC#C[C@]1(O)CC[C@H]2[C@@H]3CCC4=CC(=O)CCC4=C3[C@@H](c3ccc(N(C)C)cc3)C[C@@]21C [MFP, 11-(4-dimethylaminophenyl)-17-hydroxy-17c-propynyl-4,9-estradiene-3-one]
IP-10 levels at lowest MFP dose [1]: no increase over background IP-10 levels

Molecule: CCCOc1cc([C@]2(C)CNC(=O)O2)ccc1OC [Mesopram]
clinical scores of EAE, positive controls ([4]; first study): significantly decreased clinical scores
clinical scores of EAE, positive controls ([4]; second study): significantly decreased clinical scores

Molecule: C[C@]12C=CC(=O)C=C1CC[C@@H]1[C@@H]2[C@@H](O)C[C@@]2(C)[C@H]1CC[C@]2(O)C(=O)CO [Prednisolone]
clinical scores of EAE, positive controls ([4]; first study): significantly decreased clinical scores
clinical scores of EAE, positive controls ([4]; second study): significantly decreased clinical scores

Molecule: GAL-4 residues 1-100: N-terminal DNA binding domain fragment of yeast GAL-4 protein
Kd [5]: 3 nM

Molecule: mIFN-β: purified recombinant murine interferon-β protein expressed in 293E cells
increase in the level of Mx1 RNA [6]: 100 fold
EC50 of Mx1 RNA induction ([6]; 4 hours treatment): approximately 50 pg/ml
time of highest Mx1 expression levels after injection ([7]; bolus protein): 2 h
time after injection beyond which no Mx1 RNA levels above background were detected ([7]; bolus protein i.m.): 12 h
time of drop to background of IP-10 plasma level ([8]; each of three doses, i.v. or i.m.): ≤ 24 h
increase of IP-10 levels ([8]; high dose delivered i.v.): 3000 fold
time of drop to background of JE plasma level [9]: ≤ 24 h
specific activity of the purified protein [10]: 2×10^8 units/mg
clinical scores of EAE compared to vehicle treated mice ([4]; first study, 30,000 units s.c. every other day): did not reach statistical significance
clinical scores of EAE compared with vehicle treated mice ([4]; first study, 100,000 units s.c. every other day): significantly decreased clinical scores
clinical scores compared to the vehicle control treated mice ([4]; second study, 100,000 Units s.c. every other day): significantly decreased clinical scores
